Measurements taken from PubChem BioAssay (NCI).
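Cultured in 96-well plates, cells were exposed to test compound for 48 hours across five concentrations. TGI marks complete inhibition of growth.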

Legend:
Experiment in all cases: NCI tumour cell line growth inhibition, 48 h
[1] = test system: 786-0 renal
[2] = test system: MDA-MB-231 breast
[3] = test system: M19-MEL melanoma
[4] = test system: SNB-78 CNS
[5] = test system: DMS 114 small cell lung
[6] = test system: RXF-631 renal
[7] = test system: HOP-18 NSCLC

Row | SMILES | TGI [2] [µM] | TGI [3] [µM] | other results
1 | Cc1c(Cl)c(S(N)(=O)=O)cc(S(N)(=O)=O)c1NC(=O)c1ccc(Cl)cc1 | – | – | TGI [1]: > 100 µM
2 | CC1(C)[C@@H]2C[C@H]1C(Cc1ccccc1C[C@H]1c3cc(-c4ccccn4)ncc3[C@H]3C[C@@H]1C3(C)C)c1cc(-c3ccccn3)ncc12 (some centres undefined) | > 68 | – | –
3 | C/C=C1/CN2CC[C@@H]3c4ccccc4N4[C@H](C(=O)OC)[C@H]1C[C@H]2[C@]34/C=C/C1=COC[C@@H]2[C@H]1C[C@H]1c3c(c4ccccc4n3C)C[C@@H]2N1C | 8.93 | – | –
4 | Nc1nc(SCCC/C=C/B(O)O)nc2c1ncn2C1OC(CO)C(O)C1O (centres undefined) | – | > 243 | TGI [4]: > 243 µM
5 | COc1cc2c(cc1OC)C(C1(O)CCCCC1)NCC2 (centres undefined) | – | > 100 | –
6 | O=[N+]([O-])/C=C/c1cccc(F)c1 | 38.2 | – | –
7 | Nc1nc(Cl)cc(NCCCCO)n1 | – | > 100 | TGI [5]: > 100 µM; TGI [4]: > 100 µM; TGI [6]: > 100 µM
8 | C#CCCCCC#CC1CCCC1C1=CC(=O)c2ccccc21 (centres undefined) | – | – | TGI [5]: 6.97 µM; TGI [7]: 25 µM
9 | CN[C@@H]1[C@H](O)[C@H](NC)[C@H]2O[C@@]3(O)C(=O)C[C@@H](C)O[C@H]3O[C@@H]2[C@H]1O | > 100 | – | –
